Measurements reported in patent publication US20030004211A1, “Carbohydrate modifying agent and drinks containing the modifying agent” (priority 2001, published 2003).

How the values were obtained:
sobrinus streptococci = assay: in vitro growth and adherence of cariogenic bacteria (UCSF School of Preventive Dentistry study); assay type: cell-based; details: 0.5% zinc solution
Description: (§1) In another preferred embodiment of the invention, the formulation includes one or more zinc salt or other source of the zinc ion. Metabolically, zinc is a critical nutrient in the synthesis of insulin and the metabolism of carbohydrates. From a dental perspective, cariogenic bacteria enzymatically produce an insoluble glucan deposit from simple sugars present in the mouth that firmly adheres to the enamel tooth surface.

mutans streptococci = assay: as above; assay type: cell-based; details: 0.5% zinc solution
Description: as §1

[Cl-].[Cl-].[Zn+2] [zinc chloride]
inhibited: adherence of sobrinus streptococci (sobrinus streptococci) | growth of sobrinus streptococci (sobrinus streptococci) | adherence of mutans streptococci (mutans streptococci) | growth of mutans streptococci (mutans streptococci)

zinc ascorbate
inhibited: adherence of sobrinus streptococci (sobrinus streptococci) | growth of sobrinus streptococci (sobrinus streptococci) | adherence of mutans streptococci (mutans streptococci) | growth of mutans streptococci (mutans streptococci)
